Key:
[1] = target: T1, Beta-3 adrenergic receptor (Homo sapiens, UniProt P13945); assay: In vitro increase in cAMP levels in Chinese hamster ovary cells expressing the human cloned beta 3 Adrenergic receptor.; type: functional, cell-based
Target sequence in this assay (P13945 whole entry): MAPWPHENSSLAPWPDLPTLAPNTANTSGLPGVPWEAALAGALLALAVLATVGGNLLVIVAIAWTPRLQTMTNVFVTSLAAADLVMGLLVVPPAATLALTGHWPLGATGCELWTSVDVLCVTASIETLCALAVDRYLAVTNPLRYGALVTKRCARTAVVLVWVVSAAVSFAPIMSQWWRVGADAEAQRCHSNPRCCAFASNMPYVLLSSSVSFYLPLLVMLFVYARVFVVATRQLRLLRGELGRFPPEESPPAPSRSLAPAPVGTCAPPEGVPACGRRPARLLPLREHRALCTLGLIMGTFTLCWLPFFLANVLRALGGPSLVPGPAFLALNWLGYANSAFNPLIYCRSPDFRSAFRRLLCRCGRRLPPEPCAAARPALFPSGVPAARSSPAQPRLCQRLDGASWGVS

[2] = target: T2, Beta-2 adrenergic receptor (Homo sapiens, UniProt P07550); assay: Increased cAMP levels of Chinese hamster ovary (CHO) cells expressing human beta 2 adrenergic receptors; type: functional, cell-based
Target sequence in this assay (P07550 whole entry): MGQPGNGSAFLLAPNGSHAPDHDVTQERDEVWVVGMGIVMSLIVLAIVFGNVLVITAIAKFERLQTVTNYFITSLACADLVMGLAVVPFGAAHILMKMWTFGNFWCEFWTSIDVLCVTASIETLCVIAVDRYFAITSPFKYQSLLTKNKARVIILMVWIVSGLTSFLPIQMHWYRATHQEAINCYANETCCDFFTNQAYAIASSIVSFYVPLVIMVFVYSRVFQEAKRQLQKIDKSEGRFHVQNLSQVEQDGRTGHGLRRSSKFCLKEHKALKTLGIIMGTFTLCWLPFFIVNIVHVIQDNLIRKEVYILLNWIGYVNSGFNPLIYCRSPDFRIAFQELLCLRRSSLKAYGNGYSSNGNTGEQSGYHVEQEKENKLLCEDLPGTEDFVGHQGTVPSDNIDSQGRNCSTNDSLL

[3] = target: T1, Beta-3 adrenergic receptor; assay: Compound was tested for increased thermogenesis using beta-3 human transgenic mice
Target sequence in this assay (P13945 whole entry, looked up): as the sequence (P13945 whole entry) above

[4] = target: T3, Beta-1 adrenergic receptor (Homo sapiens, UniProt P08588); assay: In vitro activity to increase cAMP levels in Chinese hamster ovary (CHO) cells expressing the cloned human beta 1 Adrenergic receptor; type: cell-based
Target sequence in this assay (P08588 whole entry): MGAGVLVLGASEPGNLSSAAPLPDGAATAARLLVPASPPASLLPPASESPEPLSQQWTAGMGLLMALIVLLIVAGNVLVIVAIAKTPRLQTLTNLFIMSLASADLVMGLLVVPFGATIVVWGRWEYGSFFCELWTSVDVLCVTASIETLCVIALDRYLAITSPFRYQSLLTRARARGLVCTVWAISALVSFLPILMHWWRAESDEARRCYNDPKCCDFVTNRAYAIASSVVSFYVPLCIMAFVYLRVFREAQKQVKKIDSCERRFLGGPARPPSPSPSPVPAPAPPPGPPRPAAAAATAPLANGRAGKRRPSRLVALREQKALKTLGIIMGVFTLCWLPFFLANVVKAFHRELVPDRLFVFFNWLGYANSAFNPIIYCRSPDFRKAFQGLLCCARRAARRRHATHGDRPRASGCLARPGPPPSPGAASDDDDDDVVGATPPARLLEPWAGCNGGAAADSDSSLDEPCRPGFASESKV

[5] = target: T3, Beta-1 adrenergic receptor; assay: Inhibition of I-iodocyanopindolol binding to human beta 1 adrenergic receptors
Target sequence in this assay (P08588 whole entry): as above

[6] = target: T2, Beta-2 adrenergic receptor
Target sequence in this assay (P07550 whole entry): as the sequence (P07550 whole entry) above
Description: Inhibition of I-iodocyanopindolol binding to human beta 2 adrenergic receptors

[7] = target: T3, Beta-1 adrenergic receptor; assay: Increased cAMP levels of Chinese hamster ovary (CHO) cells expressing human beta 1 Adrenergic receptor; type: functional, cell-based
Target sequence in this assay (P08588 whole entry): as the sequence (P08588 whole entry) above

[8] = target: T2, Beta-2 adrenergic receptor; assay: Intrinsic activity to increase cAMP levels in Chinese hamster ovary (CHO) cells expressing the cloned human beta 2 adrenergic receptors; type: cell-based
Target sequence in this assay (P07550 whole entry, looked up): as the sequence (P07550 whole entry) above

[9] = target: T1, Beta-3 adrenergic receptor; assay: Intrinsic activity to increase cAMP levels in Chinese hamster ovary (CHO) cells expressing the cloned human beta 3 Adrenergic receptor; type: cell-based
Target sequence in this assay (P13945 whole entry, looked up): as the sequence (P13945 whole entry) above

[10] = target: T3, Beta-1 adrenergic receptor; assay: Intrinsic activity to increase cAMP levels in Chinese hamster ovary (CHO) cells expressing the cloned human beta 1 Adrenergic receptor; type: cell-based
Target sequence in this assay (P08588 whole entry, looked up): as the sequence (P08588 whole entry) above

Row | EC50 [1] [nM] | EC50 [2] [nM] | EC50 [4] [nM] | EC50 [7] [nM] | IA [8] | IA [9] | IA [10] | Structure (SMILES) | Thermogenesis [3] [%] | Ki [5] [nM] | Ki [6] [nM]
1 | 270 | – | – | – | – | – | – | CS(=O)(=O)Nc1cc([C@@H](O)CNC2CCN(c3ccc(CC(=O)O)cc3)CC2)ccc1O | – | – | –
2 | 260 | – | – | – | – | – | – | CS(=O)(=O)Nc1cc([C@@H](O)CNC2CCN(c3ccc(C(=O)NCCC(=O)O)cc3)CC2)ccc1O | – | – | –
3 | 20 | 270 | – | 1200 | – | – | – | CS(=O)(=O)Nc1cc([C@@H](O)CNC2CCN(c3ccc(C(N)=O)cc3)CC2)ccc1O | – | – | –
4 | 39 | 4700 | – | 9800 | – | – | – | CS(=O)(=O)Nc1cc([C@@H](O)CNC2CCN(c3ccc(CCC(=O)O)cc3)CC2)ccc1O | – | – | –
5 | 15 | 3200 | – | 4500 | – | – | – | CCOC(=O)CNC(=O)c1ccc(N2CCC(NC[C@H](O)c3ccc(O)c(NS(C)(=O)=O)c3)CC2)cc1 | – | – | –
6 | 220 | > 50000 | 48700 | – | – | – | – | CS(=O)(=O)Nc1cc([C@@H](O)CNC2CCN(c3ccc(C(=O)O)cc3)CC2)ccc1O | – | – | –

More lines, now with the values behind:

Row | Structure (SMILES) | EC50 [1] [nM] | EC50 [2] [nM] | EC50 [4] [nM] | EC50 [7] [nM] | IA [8] | IA [9] | IA [10] | Thermogenesis [3] [%] | Ki [5] [nM] | Ki [6] [nM]
7 | CCCCCCNC(=O)Nc1ccc(S(=O)(=O)Nc2ccc(CCNC[C@H](O)COc3ccc(O)cc3)cc2)cc1 [L-755507] | – | 20 | 330 | – | – | – | – | 28 | 570 | 160
8 | CCCCN(c1ccc(N2CCC(NC[C@H](O)c3ccc(O)c(NS(C)(=O)=O)c3)CC2)cc1)S(=O)(=O)CC(=O)O | 4 | 5000 | 2000 | – | 0.45 | 1 | 0.51 | – | – | –
9 | CCCCN(CC(=O)O)C(=O)c1ccc(N2CCC(NC[C@H](O)c3ccc(O)c(NS(C)(=O)=O)c3)CC2)cc1 | 36 | 10500 | – | > 1000 | – | – | – | – | – | –
10 | CS(=O)(=O)Nc1cc([C@@H](O)CNC2CCN(c3ccc(NC(=O)CC(=O)O)cc3)CC2)ccc1O | 130 | 900 | – | 100 | – | – | – | – | – | –
11 | CS(=O)(=O)Nc1cc([C@@H](O)CNC2CCN(c3ccc(C(=O)N[C@@H](Cc4ccccc4)C(=O)O)cc3)CC2)ccc1O | – | 1500 | – | 43700 | – | – | – | – | > 100000 | 480
12 | CC(C)C[C@H](NC(=O)c1ccc(N2CCC(NC[C@H](O)c3ccc(O)c(NS(C)(=O)=O)c3)CC2)cc1)C(=O)O | 8 | 80 | – | 60 | – | – | – | 53 | > 100000 | 3400
13 | CS(=O)(=O)Nc1cc([C@@H](O)CNC2CCN(c3ccc(C(=O)N4CCC[C@H]4C(=O)O)cc3)CC2)ccc1O | – | 20 | – | – | – | – | – | – | – | –
14 | CC(C)[C@H](NC(=O)c1ccc(N2CCC(NC[C@H](O)c3ccc(O)c(NS(C)(=O)=O)c3)CC2)cc1)C(=O)O | 26 | > 10000 | – | > 10000 | – | – | – | – | > 100000 | 3600
15 | CS(=O)(=O)Nc1cc([C@@H](O)CNC2CCN(c3ccc(C(=O)NCC(=O)O)cc3)CC2)ccc1O | 60 | 40 | – | 50 | – | – | – | 51 | > 100000 | 11600
16 | CCCCN(C(=O)CC(=O)O)c1ccc(N2CCC(NC[C@H](O)c3ccc(O)c(NS(C)(=O)=O)c3)CC2)cc1 | 9 | 60 | – | 40 | – | – | – | 35 | > 100000 | > 100000
17 | CS(=O)(=O)Nc1cc([C@@H](O)CNC2CCN(c3ccc(C(=O)N[C@@H](CCC(=O)O)C(=O)O)cc3)CC2)ccc1O | 92 | – | – | – | – | – | – | – | – | –
18 | CS(=O)(=O)Nc1cc([C@@H](O)CNC2CCN(c3ccc(COCC(=O)O)cc3)CC2)ccc1O | 66 | 6000 | – | 1600 | – | – | – | – | – | –
